# Values of other authors as cited in patent US20100080856A1, “Method and composition for postoperative wound healing” (priority 2008, published 2010).
# Tested on: wound healing in severe burn patients
# Details: oral administration, Crit Care Med. 2000, Vol 28, No. 6, 1772-1776
smiles,measurement,value
NCCC[C@H](N)C(=O)O.NCCC[C@H](N)C(=O)O.O=C(O)CCC(=O)C(=O)O [ornithine α-ketoglutarate],wound healing time,shortens the wound healing time
